Results on 8 molecules are retold here after ChEMBL document CHEMBL1201862, “PubChem BioAssay data set” (2004).

Each structure is given as a SMILES string.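 Results reflect a 48-hour exposure of cells in 96-well plates to compound at five concentrations. GI50: concentration for 50% inhibition of growth.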 Calls of active or inactive are those of the source. Rule as the data show it: active = GI50 up to about 1.1 µM and inactive = higher.

Common to all, as to assay: DTP human tumour cell line panel, 48 h
The subject of assay [1] is SK-MEL-28.
The test system of assay [2] is DU-145.
Assay [3] has as its system MOLT-4.
Assay [4] has as its system LOX IMVI.
Assay [5] has as its system ACHN.
The test system of assay [6] is NCI/ADR-RES.
The test system of assay [7] is OVCAR-4.
Assay [8] relates to EKVX.
Assay [9] relates to Malme-3M.
Assay [10] has as its system IGROV-1.
Assay [11] relates to A498.
Assay [12] deals with MDA-N.
Assay [13] has as its system HCT-15.
For assay [14], the system named is T47D.
Assay [15] has as its system UACC-257.
For assay [16], the system named is TK-10.
Assay [17] deals with BT-549.
The subject of assay [18] is K562.
In assay [19] the test system is HCC 2998.

For the molecule `Clc1ccc(CN2CCCN(Cc3ccc(Cl)cc3)C2c2cc3ccccc3c3ccccc23)cc1`, the GI50 was 22.8 µM (inactive) in assay [1]; 44.2 µM (inactive) in assay [2]; 5.85 µM (inactive) in assay [3]; 36.5 µM (inactive) in [4]; > 100 µM (inactive) in assay [5]; 65.8 µM (inactive) in assay [6]. The GI50 in assay [7] was 55.6 µM (inactive); in assay [8], 39.1 µM (inactive); in [9] it was 18.4 µM (inactive); in assay [10] it was > 100 µM (inactive); in assay [11], 19 µM (inactive); in [12] it was 37.2 µM (inactive). Besides, the GI50 in assay [13] was 62.8 µM; in assay [14] it was 32.4 µM (inactive); in assay [15], 22.8 µM (inactive); in assay [16] it was 78.5 µM (inactive); in assay [17], 38.3 µM (inactive).

`CCOC(=O)C12C(=O)CCN1CCc1ccccc1C2C` (stereo not given): the GI50 in assay [1], in assay [2], in assay [3], in assay [4], in assay [5] and in assay [6] was > 100 µM (inactive) in each case. Moreover, the GI50 in assay [18], in assay [7], in assay [8], in [9], in assay [10] and in assay [11] was > 100 µM (inactive) in each case. For the same molecule, the GI50 in assay [12] is > 100 µM (inactive); in assay [13], greater than 100 µM; in [14] it was > 100 µM (inactive); in assay [15] it was > 100 µM (inactive); in assay [16] it was > 100 µM (inactive); in assay [17] it was > 100 µM (inactive).

As to `COc1ccccc1N1C(=O)CSC1c1c[nH]c2ccccc12` (stereo not given), the GI50 in assay [1] is 66.7 µM (inactive); in assay [2], > 100 µM (inactive); in assay [3] it was > 100 µM (inactive); in assay [5], > 100 µM (inactive); in assay [6] it was > 100 µM (inactive); in assay [18], > 100 µM (inactive). Further, the GI50 in [7], in assay [8], in [19], in assay [10], in assay [11] and in assay [12] was > 100 µM (inactive) each time. In addition, the GI50 in [13] was greater than 100 µM; in assay [14], > 100 µM (inactive); in assay [15], > 100 µM (inactive); in assay [16], > 100 µM (inactive); in assay [17], > 100 µM (inactive).

For the molecule `Cc1ncc(-c2nnnn2-c2ccccc2)c(C(=O)O)n1`, the GI50 in assay [1], in assay [2], in [3], in [4], in [5] and in [6] was > 100 µM (inactive) throughout. The GI50 in [18], in assay [8], in assay [19], in assay [9], in assay [10] and in assay [11] was > 100 µM (inactive) throughout. Further, the GI50 in assay [12] was > 100 µM (inactive); in assay [13], greater than 100 µM; in assay [14] it was > 100 µM (inactive); in assay [15], > 100 µM (inactive); in [16], > 100 µM (inactive); in assay [17], > 100 µM (inactive).

Take `Cc1nc2sc3ccccc3n2c(=O)c1/N=N/c1ccc(Br)cc1`: the GI50 in assay [1] was > 100 µM (inactive); in assay [2], > 100 µM (inactive); in assay [3], 55.8 µM (inactive); in assay [4], 54.8 µM (inactive); in assay [5] it was > 100 µM (inactive); in assay [6] it was > 100 µM (inactive). In addition, the GI50 in [18] is 81.1 µM (inactive); in assay [7] it was 71.3 µM (inactive); in assay [8], 57.1 µM (inactive); in assay [9], > 100 µM (inactive); in assay [10] it was > 100 µM (inactive); in [11] it was 43.3 µM (inactive). Besides, the GI50 in [12] is > 100 µM (inactive); in [13] it was greater than 100 µM; in [14], 90.8 µM (inactive); in assay [15], > 100 µM (inactive); in assay [16], > 100 µM (inactive); in [17] it was > 100 µM (inactive).

Consider `Cc1c(C)c2c(c(N)c1C#N)C(=O)N(N)C2=O`, for which the GI50 in [1] is > 100 µM (inactive); in assay [2] it was > 100 µM (inactive); in assay [3], 61.7 µM (inactive); in [5] it was > 100 µM (inactive); in assay [6] it was > 100 µM (inactive); in assay [18] it was > 100 µM (inactive). Besides, the GI50 in assay [7] was > 100 µM (inactive); in [8] it was > 100 µM (inactive); in [19], > 100 µM (inactive); in [9], > 100 µM (inactive); in [10] it was > 100 µM (inactive); in [11], 40.4 µM (inactive). Also, the GI50 in assay [12] was > 100 µM (inactive); in [13], greater than 100 µM; in [14] it was > 100 µM (inactive); in assay [15], > 100 µM (inactive); in [16] it was > 100 µM (inactive); in assay [17] it was > 100 µM (inactive).

Regarding `COC(=O)[C@H](Cc1ccccc1)NC(=O)c1ccc(CNC(=O)/C=C/c2ccc(-c3ccccc3)cc2)cc1`, the GI50 in assay [1] is > 100 µM (inactive); in assay [2], > 100 µM (inactive); in assay [3], > 100 µM (inactive); in [5], > 100 µM (inactive); in assay [6], 59.8 µM (inactive); in [18], 77.1 µM (inactive). Also, the GI50 in [7] is > 100 µM (inactive); in [8] it was > 100 µM (inactive); in [19], 11.5 µM (inactive); in assay [9], 24.9 µM (inactive); in [10], > 100 µM (inactive); in assay [11] it was > 100 µM (inactive). Also, the GI50 in assay [12] was > 100 µM (inactive); in assay [13], greater than 100 µM; in assay [14], > 100 µM (inactive); in assay [15], > 100 µM (inactive); in [16], 68.1 µM (inactive); in assay [17], 24.9 µM (inactive).

Turning to `CC(C)CC(NP(=O)(O)OC1OC(C)C(O)C(O)C1O)C(=O)NC(Cc1c[nH]c2ccccc12)C(=O)O` (stereo not given), the GI50 in [1], in assay [2], in [3], in assay [6], in [18] and in assay [7] was > 100 µM (inactive) throughout. The GI50 in assay [8], in assay [19], in assay [9], in assay [10], in assay [11] and in assay [12] was > 100 µM (inactive) throughout. In addition, the GI50 in [13] is greater than 100 µM; in [14], > 100 µM (inactive); in [15], > 100 µM (inactive); in assay [17] it was > 100 µM (inactive).

A word on the GI50: it is the concentration that inhibits growth by half.
